Among the data in patent US20220289746A1, “PYRROLIDINE DERIVATIVES” (Hoffmann-La Roche Inc., priority 2019, published 2022) are EC50 values, retold here.

For assay [1], the target named is T1, human M4 receptor (Homo sapiens, UniProt P08173).
T1 sequence (P08173 1-479): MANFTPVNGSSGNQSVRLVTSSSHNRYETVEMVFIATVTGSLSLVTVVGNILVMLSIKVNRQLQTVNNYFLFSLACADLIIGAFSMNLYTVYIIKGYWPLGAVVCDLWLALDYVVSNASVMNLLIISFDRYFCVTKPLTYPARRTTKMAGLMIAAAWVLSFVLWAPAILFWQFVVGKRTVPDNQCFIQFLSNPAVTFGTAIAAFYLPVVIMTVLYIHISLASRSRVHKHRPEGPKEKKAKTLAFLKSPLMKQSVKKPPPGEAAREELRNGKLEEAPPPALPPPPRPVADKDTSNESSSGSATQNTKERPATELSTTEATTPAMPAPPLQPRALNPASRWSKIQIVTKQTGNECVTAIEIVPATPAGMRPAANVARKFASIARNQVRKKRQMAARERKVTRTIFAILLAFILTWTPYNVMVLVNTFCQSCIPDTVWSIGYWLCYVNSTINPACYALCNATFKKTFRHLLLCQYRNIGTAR
Description: cAMP assay for M4 positive allosteric modulators (M4 PAM cAMP assay). Type of assay: cell-based. On the set-up: expressed in transfected cells; host or cells: CHO-K1. Conditions: Table 1; CHO-K1 cells expressing human M4; forskolin 7.5 μM + acetylcholine EC20 (0.2 nM). The protocol: The potency of M4 PAMs was determined using a cell-based cyclic adenosine monophosphate assay. The assay was performed with CHO-Kl cells stably expressing untagged human M4 receptor and cAMP was quantified using the Nano-TRF Detection Assay kit (Roche, Cat. No. 05214386) as described in the kit instructions. The cells were grown in Ham's F-12 Nutrient mix supplemented with 10% FBS and 200 μg/ml geneticin until they reached 80% confluency. The cells were washed with PBS, detached with accutase and resuspended in assay buffer consisting of HBSS and 0.1% BSA. They were then seeded in black 384-well plates (Corning, Cat. No. 3764) at a density of 20,000 cells/20 μl per well until the addition of compounds.
Test compounds were serially diluted 1:2 in 100% DMSO and spotted in 384-well plates at 0.5 μl/well. The compounds were then diluted in water containing IBMX (Sigma, Cat. No. 17018) and a sample (5 μl) was added to the cells for 15 minutes at 37° C./5% CO2. After this incubation the cells were stimulated with a combination of forskolin (7.5 μM) and acetylcholine EC20 (0.2 nM) in assay buffer for 30 minutes at 37° C./5% CO2. The assay was stopped by adding cAMP detection mix (15 μl/well, containing detergents for cell lysis) for one hour at RT.
The test plates were read using a SpectraMax i3x reader (Molecular Devices). The exported raw data was used to calculate the FRET signal based on the P-factor as per cAMP kit instructions. The data was normalized to the activity of acetylcholine plus forskolin, with 2 nM of acetylcholine plus 7.5 μM forskolin defined as 100% activity. Dose response curves were fitted to the percent activity data of the compounds using a sigmoidal dose response model (XLfit, IDBS) and the data were reported as EC50 and percent efficacy.
(In general: Cyclic AMP is a second messenger, typically raised through Gs and lowered through Gi signalling.)

Assay [2] addresses T1, human M4 receptor. Kind of assay: Calcium flux assay using fluorescent imaging (M4 PAM FLIPR assay). Type of assay: cell-based. More on the design: expressed in transfected cells; host or cells: CHO (monoclonal line, clone 2). To be noted: Table 1; CHO cells expressing human M4+Gqi5; acetylcholine EC20. Here is the method:
CHO cells were transfected with expression plasmid encoding the human M4 receptor and a Gqi5 construct to redirect Gi signaling to calcium. Stable cells were cloned by limiting dilution to yield a monoclonal cell line expressing human M4+Gqi5 (clone 2). The stable cells were grown in DMEM containing 10% FBS, 200 ug/ml Geneticin and 800 ug/ml Hygromycin at 37° C. in a 10% CO2 incubator at 95% humidity.
Calcium Flux Assay Using Fluorescent Imaging (“M4 PAM FLIPR” Assay)
On the afternoon before the assay, cells were plated at a density of 50,000 cells/well into black 96 well plates with clear bottoms to yield a confluent monolayer the next day. Hanks balanced salt solution, without phenol red, containing 20 mM HEPES (pH 7.3) and 2.5 mM probenecid (assay buffer) was prepared fresh for each experiment. Compound dilutions were made using a Beckman Biomek 2000 laboratory automation workstation, in assay buffer. The dye-loading buffer consisted of a final concentration of 2 μM Fluo-4-AM (dissolved in DMSO and pluronic acid) and 65 μg/ml amidoblack in assay buffer. The existing culture media was removed from the wells and 100 μl of the dye-loading buffer was added to each well and incubated for approximately 90 min at 37° C. in a 5% CO2 incubator at 95% humidity.
Calcium flux in the dye-loaded cells was measured with the fluorescence reader Hamamatsu FDSS 7000. To test compounds as agonists, compound addition (25 μl) was made 10 s into the fluorescent measurements and fluorescent response was recorded for 3 minutes. The fluorescence data was expressed as percentage of the fluorescence obtained by an EC100 concentration (3 μM) of the endogenous full agonist acetylcholine. Each test compound concentration-response curve was constructed using a four parameter logistic equation in Microsoft Excel XLFit as follows:
Y=Minimum+((Maximum−Minimum)/(1+10^(LogEC50−X)nH)).
The concentration of agonist that produced a half-maximal response is represented by the EC50 value. Maximum and minimum are the maximum and minimum fluorescence signal in % respectively. nH is the Hill slope.
To measure positive allosteric modulator activity 25 μl of an EC20 concentration of the endogenous agonist acetylcholine is added to the cells already pre-incubated with the test compound for 15 minutes.
The M4 PAM dose response is constructed using the agonist dose-response equation above. The concentration of PAM that produced a half-maximal response is represented by the EC50 value and the maximum signal measured is the PAM efficacy expressed in % of the EC100 (3 μM) acetylcholine response. • cAMP Assay for M4 Positive Allosteric Modulators (“M4 PAM cAMP” Assay)
In general terms: Calcium assays in cells follow changes in intracellular calcium, usually with a dye or a luminescent sensor.

The structures appear in SMILES notation.

In the case of `Cc1nc2c(c(C)c1Cl)CN(C(=O)[C@@H]1CCN(c3ccncc3)C1)C2` [Example 3, (3-chloro-2,4-dimethyl-5,7-dihydropyrrolo[3,4-b]pyridin-6-yl)-[(3R)-1-(4-pyridyl)pyrrolidin-3-yl]methanone], the 50% effective concentration (EC50) was determined as 0.769 µM at human M4 receptor [1] and 0.489 µM on human M4 receptor [2].
Turning to `Cc1ccc(N2CC[C@@H](C(=O)N3Cc4nc(C)c(Cl)c(C)c4C3)C2)cn1` [Example 4, (3-chloro-2,4-dimethyl-5,7-dihydropyrrolo[3,4-b]pyridin-6-yl)-[(3R)-1-(6-methyl-3-pyridyl)pyrrolidin-3-yl]methanone], the 50% effective concentration (EC50) at human M4 receptor [1] was found to be 0.69 µM; at human M4 receptor [2], 0.547 µM.
As for `Cc1cc(N2CC[C@@H](C(=O)N3Cc4nc(C)c(Cl)c(C)c4C3)C2)ccn1` [Example 5, (3-chloro-2,4-dimethyl-5,7-dihydropyrrolo[3,4-b]pyridin-6-yl)-[(3R)-1-(2-methyl-4-pyridyl)pyrrolidin-3-yl]methanone], the concentration giving a half-maximal response (EC50) is 0.616 µM at human M4 receptor [1] and 0.49 µM at human M4 receptor [2].
For `Cc1nc2c(c(C)c1Cl)CN(C(=O)[C@@H]1CCN(c3ccnc(C4CC4)n3)C1)C2` [Example 6, (3-chloro-2,4-dimethyl-5,7-dihydropyrrolo[3,4-b]pyridin-6-yl)-[(3R)-1-(2-cyclopropylpyrimidin-4-yl)pyrrolidin-3-yl]methanone] the same measures were 3.78 µM and 0.931 µM.
For `Cc1nc2c(c(C)c1Cl)CN(C(=O)[C@@H]1CCN(c3ncc(C(F)(F)F)cn3)C1)C2` [Example 7, (3-chloro-2,4-dimethyl-5,7-dihydropyrrolo[3,4-b]pyridin-6-yl)-[(3R)-1-[5-(trifluoromethyl)pyrimidin-2-yl]pyrrolidin-3-yl]methanone] the same measures were 2.08 µM and 1.01 µM.
The corresponding values for `Cc1cnc(N2CC[C@@H](C(=O)N3Cc4nc(C)c(Cl)c(C)c4C3)C2)nc1` [Example 8, (3-chloro-2,4-dimethyl-5,7-dihydropyrrolo[3,4-b]pyridin-6-yl)-[(3R)-1-(5-methylpyrimidin-2-yl)pyrrolidin-3-yl]methanone] are 5.27 µM and 2.35 µM.
In the case of `Cc1nc2c(c(C)c1Cl)CN(C(=O)[C@@H]1CCN(c3ccc(C(F)(F)F)nc3)C1)C2` [Example 9, (3-chloro-2,4-dimethyl-5,7-dihydropyrrolo[3,4-b]pyridin-6-yl)-[(3R)-1-[6-(trifluoromethyl)-3-pyridyl]pyrrolidin-3-yl]methanone], the values for the EC50 on human M4 receptor [1] and at human M4 receptor [2] were 1.07 µM and 1.36 µM, respectively.
The corresponding values for `COc1ccc(N2CC[C@@H](C(=O)N3Cc4nc(C)c(Cl)c(C)c4C3)C2)cn1` [Example 10, (3-chloro-2,4-dimethyl-5,7-dihydropyrrolo[3,4-b]pyridin-6-yl)-[(3R)-1-(6-methoxy-3-pyridyl)pyrrolidin-3-yl]methanone] are 1.01 µM and 1.03 µM.
For `CNc1ccc(N2CC[C@@H](C(=O)N3Cc4nc(C)c(Cl)c(C)c4C3)C2)cn1` [Example 11, (3-chloro-2,4-dimethyl-5,7-dihydropyrrolo[3,4-b]pyridin-6-yl)-[(3R)-1-[6-(methylamino)-3-pyridyl]pyrrolidin-3-yl]methanone] the same measures were 0.446 µM and 1.36 µM.
For `Cc1ncccc1N1CC[C@@H](C(=O)N2Cc3nc(C)c(Cl)c(C)c3C2)C1` [Example 12, (3-chloro-2,4-dimethyl-5,7-dihydropyrrolo[3,4-b]pyridin-6-yl)-[(3R)-1-(2-methyl-3-pyridyl)pyrrolidin-3-yl]methanone] the same measures were 1.26 µM and 1.3 µM.
`Cc1ccncc1N1CC[C@@H](C(=O)N2Cc3nc(C)c(Cl)c(C)c3C2)C1` [Example 13, (3-chloro-2,4-dimethyl-5,7-dihydropyrrolo[3,4-b]pyridin-6-yl)-[(3R)-1-(4-methyl-3-pyridyl)pyrrolidin-3-yl]methanone]: the EC50 on human M4 receptor [1] stood at 0.674 µM; on human M4 receptor [2], 0.528 µM.
The corresponding values for `Cc1nc2c(c(C)c1Cl)CN(C(=O)[C@@H]1CCN(c3cncc(C(F)(F)F)c3)C1)C2` [Example 14, (3-chloro-2,4-dimethyl-5,7-dihydropyrrolo[3,4-b]pyridin-6-yl)-[(3R)-1-[5-(trifluoromethyl)-3-pyridyl]pyrrolidin-3-yl]methanone] are 2.18 µM and 3.52 µM.
The corresponding values for `Cc1nc2c(c(C)c1Cl)CN(C(=O)[C@@H]1CCN(c3cncc(C(F)F)c3)C1)C2` [Example 15, (3-chloro-2,4-dimethyl-5,7-dihydropyrrolo[3,4-b]pyridin-6-yl)-[(3R)-1-[5-(difluoromethyl)-3-pyridyl]pyrrolidin-3-yl]methanone] are 0.346 µM and 0.306 µM.
For `Cc1nc2c(c(C)c1Cl)CN(C(=O)[C@@H]1CCN(c3cncc(C4CC4)c3)C1)C2` [Example 16, (3-chloro-2,4-dimethyl-5,7-dihydropyrrolo[3,4-b]pyridin-6-yl)-[(3R)-1-(5-cyclopropyl-3-pyridyl)pyrrolidin-3-yl]methanone] the same measures were 3.64 µM and 0.816 µM.
As for `Cc1nc2c(c(C)c1Cl)CN(C(=O)[C@@H]1CCN(c3cncc(OC(F)F)c3)C1)C2` [Example 17, (3-chloro-2,4-dimethyl-5,7-dihydropyrrolo[3,4-b]pyridin-6-yl)-[(3R)-1-[5-(difluoromethoxy)-3-pyridyl]pyrrolidin-3-yl]methanone], the EC50 at human M4 receptor [1] was 0.23 µM; on human M4 receptor [2], 0.24 µM.
The corresponding values for `COc1cncc(N2CC[C@@H](C(=O)N3Cc4nc(C)c(Cl)c(C)c4C3)C2)c1` [Example 18, (3-chloro-2,4-dimethyl-5,7-dihydropyrrolo[3,4-b]pyridin-6-yl)-[(3R)-1-(5-methoxy-3-pyridyl)pyrrolidin-3-yl]methanone] are 0.166 µM and 0.549 µM.
For `Cc1nc2c(c(C)c1Cl)CN(C(=O)[C@@H]1CCN(c3cncc(S(C)(=O)=O)c3)C1)C2` [Example 19, (3-chloro-2,4-dimethyl-5,7-dihydropyrrolo[3,4-b]pyridin-6-yl)-[(3R)-1-(5-methylsulfonyl-3-pyridyl)pyrrolidin-3-yl]methanone] the same measures were 0.379 µM and 0.442 µM.

What is called EC50 is the concentration needed to bring the measured effect to its halfway point.
